Results as given in patent publication EP0663826B1, “AMINO ACIDS CONTAINING PARENTERAL FORMULATIONS FOR THE TREATMENT OF HYPOTENSION AND RELATED PATHOLOGIES” (BOARD OF REGENTS THE UNIVERSITY OF TEXAS SYSTEM, priority 1991, dated 1993).
Where “and” joins values, the source holds several entries; their conditions need not be identical. Identical values can stand only once. Like-named read-outs stand apart in the source and are kept apart here. *1 amine or outer side, *2 acyl side, *3 side chain or, on linkers, in order; H or OH if unused. Where a SMILES comes first, the peptide text is derived from it. Bridges are numbered along the chain shown (N, C = ends). Roman numbers before positions name the chains, in order. [ ]: non-standard residue; d: D form. Actinocin(9to1) = Cc1c2oc3c(C)ccc(C(=O)[*:1])c3nc-2c(C(=O)[*:2])c(N)c1=O; NMeV = CN[C@H](C(=O)O)C(C)C; Sar = CNCC(=O)O

Columns and labels:
[1] = system: IL-1-Induced Hypotension in Dogs; assay: IL-1-induced hypotension in dogs; assay type: in vivo; settings: for MAP increase after NAA: NAA 20 mg/kg iv single bolus
Description: • FIGURE 1 - Reversal of hypotension associated with the administration of IL-1 to dogs. The tracing shown is a representative experiment that was repeated four times. Each dog was anesthetized and […] as described herein, and baseline cardiovascular data were monitored for 30 minutes. IL-1 was dissolved in phosphate-buffered saline (pH 7.4) containing 1 mg/ml of dog albumin, and the resulting solution was infused intravenously for three minutes to deliver a dose of 50 µg/kg. MAP was continuously monitored; when a stable nadir was reached and maintained for more than 10 minutes or when MAP dropped below 50 mm Hg, NAA (20 mg/kg in 10 ml phosphate-buffered saline) was administered by intravenous infusion for 30 seconds. Sixty minutes after MAP was restored to baseline or higher values, L-arginine (400 mg/kg in 20 ml phosphate-buffered saline) was administered by slow intravenous infusion for 5 minutes. Anesthetized dogs given IL-1 (50 µg/kg) developed a progressive, moderately severe hypotension, with MAP decreasing from a baseline of 111 +/- 7 mm Hg to 80 +/- 2 mm Hg within about 3 hours. Hypotension was rapidly reversed by the intravenous administration of a single bolus dose of NAA (20 mg/kg, 88 umol/kg), with MAP increasing by from 46 +/- 9 mm Hg (58%_ to 125 +/- 8 mm Hg. • FIGURES 2A, 2B, 2C - Inhibition of IL-1-activated NO· production by N^ω-substituted arginine analogues. Figure 2A: Comparison of nitrite synthesis inhibition in smooth muscle cells by the L-isomers of NAA, NMA, and NNA and by the D-isomer of NMA. Figure 2B: Concentration dependence of nitrite synthesis inhibition in smooth muscle cells by NAA as a function of different L-arginine concentration in the culture medium. Confluent monolayers of smooth muscle cells in 96-well microtiter plates were treated with a combination of 100 ng/ml IL-1 and 50 ng/ml IFN-γ for 24 hours. Cells were then washed with Hanks' balanced salt solution, and fresh medium containing the indicated concentration of L-arginine was added. Points indicate means ± SD of nitrite production, expressed as percent of control, during a 16-hour exposure to arginine analogues (n = 3-4). Figure 2C: Effect of NAA on smooth muscle cell NO· synthase. Cytosol from cytokine-induced smooth muscle cells (∼2 µg protein) was incubated with 1 mM L-arginine, 0.5 mM NADPH, 1 mM dithiothreitol, 10 µM flavin-adenine dinucleotide, 10 µM tetrahydrobiopterin, and 0.1 U/ml dihydropteridine reductase in a total volume of 100 µL. The time course of Fe^2+-myoglobin oxidation was measured in the absence (control) or presence of 300 µM NAA (+NAA). […] FIGURE A: Time course of nitrite synthesis elicited by 40 ng/mL IL-1 alone (open circles) and by IL-1 in the presence of 50 ng/ml IFN-γ (open triangles). […] Inclusion of IL-1 receptor antagonist (40 µg/mL; filled symbols) in the culture medium inhibited nitrite production stimulated by both IL-1 and IL-1 plus IFN-γ. FIGURE B: IL-1 concentration dependence for smooth muscle cell nitrite production. Data points indicate nitrite produced during a 29-hour incubation with the indicated concentration of IL-1 alone (open circles) or in the presence of IL-1 plus 50 ng/mL IFN-γ (open triangles). All values are means ± SD for nitrite production by confluent smooth muscle cell monolayers grown in 96-well microtiter plates (60-80 X 10^3 cells per well; n = 3-4).
Experiments were conducted on healthy mongrel dogs that were free of microfilaria and weighed 25-28 kg each. […]

[2] = system: hypotension associated with the administration of TNF in the dog; assay: TNF-induced hypotension in the dog; assay type: in vivo, dogs; settings: dog; Figure 7
Description: Recombinant human TNF, specific activity 2 x 10^7 units/mg, was from the Dainippon Chemical Corporation, Tokyo, Japan. TNF was administered at a dose of 10 µg//kg in a volume of 10 ml of phosphate buffered saline containing 17 mg/ml of dog albumin. […] Arginine was obtained from Sigma Chemical Company, St. Louis, Mo.
Four conditioned mongrel dogs, 2 males and 2 females, weighing 28 to 30 kg, were studied. Care of the animals were in accordance with the recommendations of the American Association for Accreditation of Laboratory Animals [DHEW(DHHS) publication no. (NIH) 78-23, revised, 1978]. On the day of the experiment, the dogs were fasted overnight. They were anesthetized with phenobarbital (25 mg/kg). The animals were then intubated orally with a #10 fr. endotracheal tube and ventilated with a Harvard pump ventilator at a rate of 14 breaths per minute and a tidal volume of 15 ml/kg. An arterial line was percutaneously placed in the femoral artery on the day of the experiment.
Mean (electronic) and phasic systemic arterial pressures (SAP) were continuously recorded on a Hewlett-Packard recording system (model 7758B) using strain gauge manometers (Hewlett-Packard model 1290A) which were connected to the arterial line. Heart rate (HR) was determined from an EKG tracing and continuously recorded on the Hewlett-Packard recording system. Oxyhemoglobin saturation (SaO2) was obtained using a pulse oximeter (BIOX 111, Boulder, CO). Continuous time-series records of SAP, HR, and SaO2 were obtained using a Lab Master analog-to-digital convertor (16 channel, 12 bit, 30 kHz; Scientific Solutions, Inc.) sampling at 55 Hz and storing the 6 sec averages on a magnetic disk.

[3] = system: Actinomycin D-Treated L929 Cells; assay: Cytolytic activity of rh-TNF against L929 cells; assay type: cell-based, murine; settings: murine L929 cells
Description: TNF bioactivity was measured by the cytotoxicity towards murine L929 cells, in vitro. […]

[4] = system: ET shock (lethal dose); assay: Reversal of ET shock (lethal dose) by multiple doses of NAA; assay type: in vivo
Description: The reversal of ET shock (lethal dose) by Nω-aminoarginine (NAA) for 4 hrs. […] Figure 8 depicts systemic arterial pressure (SAP) versus time (min). ET (2 mg/kg), a lethal dose, was infused over 60 min. and NAA administered at 97, 165, and 374 min. to maintain blood pressure. The animal was survived for 24 hours and then autopsied.

[5] = system: nitric oxide synthase in rat aortic smooth muscle cells; assay: Induction and assay of nitrite synthesis in smooth muscle cells; assay type: cell-based
Description: Rat aortic smooth muscle cells were incubated with RPMI-1640 medium containing 10% bovine calf serum, 25 mM HEPES buffer (pH 7.4), 2 mM glutamine, […], and IL-1, IFN-γ, and various inhibitors at the concentrations indicated in the figure legends. At the desired times, nitrite concentration in the culture medium was measured using the standard Griess assay adapted to a 96-well microtiter plate reader.^36 The Griess assay is also described in Gross et al.^37 (1991). Thus, 100 µL of Griess reagent (0.5% sulfanilic acid, 0.05% naphthalenediamine, and 2.5% phosphoric acid) was added to an equal volume of culture medium, and the OD550 was measured and related to nitrite concentration by reference to a standard curve. […]
Rat aortic smooth muscle cells were incubated with RPMI-1640 medium containing 10% bovine calf serum, 25 mM HEPES buffer (pH 7.4), 2mM glutamine, 80 U/mL penicillin, 80 µg/mL streptomycin, 2 µg/mL fungizone, and IL-1, IFN-γ, and various inhibitors at the concentrations indicated in the figure legends. At the desired times, nitrite concentration in the culture medium was measured using the standard Griess assay (Green, L., et al. Anal. Biochem. 126:131-138, 1982) adapted to a 96-well microtiter plate reader (Gross, S.S., et al. Biochem. Biophys. Res. Commun. 178:823-829, 1991). […]

[6] = Cell respiration assay (MTT); assay type: cell-based; settings: rat, aortic smooth muscle cells; read-out: MTT reduction [mean ± SD], of that measured in control cells treated with IL-1 alone
Description: The extent of reduction of MTT to formazan within cells, quantitated by measurement of the optical density at 550 nm (OD550), was taken as an indicator of cellular respiration.

For `N=C(NN)NCCC[C@H](N)C(=O)O` [NAA, N^ω-amino-L-arginine], the “systemic vascular resistance after injection of NAA, higher than baseline” value ([1]; IL-1-treated dogs, average) was 43%, the “MAP increase after NAA” value ([1]; anesthetized dogs (n = 4) made hypotensive with IL-1 50 µg/kg) was 46 ± 9 mm Hg and 46 +/- 9 mm Hg and the “average increase in MAP above baseline” value ([1]; control dogs not given IL-1, NAA) was 20.1 ± 3.8 mm Hg. The “MAP after NAA” value ([1]; dogs given IL-1 50 µg/kg (MAP 80 ± 2 before NAA), NAA 20 mg/kg iv) was 125 ± 8 mm Hg and 125 +/- 8 mm Hg, the “average increase of MAP following NAA above the pre-IL-1 baseline MAP” value ([1]; dogs given IL-1 50 µg/kg, NAA 20 mg/kg) was 14.3 ± 7.7 mm and the “MAP increase after NAA” value ([1]; dogs given IL-1 50 µg/kg) was 58%. For the same molecule, the “reduction in cardiac output compared with that after IL-1” value ([1]; dogs treated with IL-1, then NAA, P = .037) was 25.2%, the “cardiac output after NAA” value ([1]; dogs treated with IL-1, then NAA, baseline 2.25, P = .204) was 1.93 L/min and the “decrease in cardiac output” value ([1]; dogs treated with NAA alone, P = .046) was 29.2%. The “duration physiologically acceptable MAP readings maintained” value ([1]; second and third injections of NAA (20 mg/kg), cytokine-treated dogs) was “up to 7 hours”, the “duration MAP maintained at baseline or higher levels” value ([1]; single injections of NAA (20 mg/kg) in cytokine-treated dogs, no L-arginine) was “up to 60 minutes” and the “reversing the hypotension associated with TNF administration” value [2] was “as effective as NMMA”. The “effect on the cytolytic effect of TNF towards tumor cells in vitro” value [3] was “did not alter”, the “survival of the animal” value ([4]; ET 2 mg/kg, multiple doses of NAA, then autopsied) was 24 h and the “pathological changes in liver, lungs, heart, brain, bowel or kidney” value ([4]; autopsy after 24 hours) was “No pathological changes were observed”.

For `C[C@@H]1C[C@@H]([C@H](O)CC2CC(=O)NC(=O)C2)C(=O)[C@@H](C)C1` [cycloheximide], the nitrite produced [5] was “less than 0.1 nmol”.

For `Cc1c2oc3c(C)ccc(C(=O)N[C@@H]4C(=O)N[C@H](C(C)C)C(=O)N5CCC[C@H]5C(=O)N(C)CC(=O)N(C)[C@@H](C(C)C)C(=O)O[C@@H]4C)c3nc-2c(C(=O)N[C@@H]2C(=O)N[C@H](C(C)C)C(=O)N3CCC[C@H]3C(=O)N(C)CC(=O)N(C)[C@@H](C(C)C)C(=O)O[C@@H]2C)c(N)c1=O` [dactinomycin] (I: T[dV]P[Sar][NMeV] / II: T[dV]P[Sar][NMeV]; ester I:1-I:C, II:1-II:C; linker I:N-II:N via Actinocin(9to1)), the nitrite produced ([5]; cells cultured 14 hours with IL-1 (100 ng/mL) and IFN-γ (50 ng/mL) plus 0.5 mg/mL dactinomycin or 1 mg/mL cycloheximide, then 16 hours in cytokine-free medium, control 2.52) was “less than 0.1 nmol” and the viability [6] was 101%.
